Test results from patent US20240279233A1, “MACROCYCLIC TAK1 INHIBITORS” (Aqilion AB, priority 2021, published 2024).
Converted amounts (≈) assume the structure as drawn. Read-outs that look alike come from different tables or passages of the source.

Legend:
[1] = molecular target: human recombinant TAK1-TAB1 Kinase (TAK1 (1-303) and TAB1 (437-end)) (Homo sapiens (Human), UniProt O43318); assay: TAK1 biochemical ADP-Glo kinase assay; conditions: MBP substrate
Outline: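 Inhibition of human recombinant TAK1-TAB1 kinase was measured with a Promega ADP-Glo luminescence assay in 384-well plates. Compounds in 5% DMSO were pre-incubated 10 min with 2 μl TAK1-TAB1 (7.5 ng/μl) in buffer of Tris pH 7.5, MgCl2, DTT and BSA. MBP substrate and ATP were then added for 1 hour at room temperature. ADP-Glo reagent and kinase detection substrate followed, luminescence was read on an Envision, and IC50 came from non-linear regression.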

[2] = Solubility assay in phosphate buffer; conditions: phosphate buffer 100 mM, pH 7.4, room temperature, 20-24 h, LC-UV
Protocol: The aqueous solubility of selected example compounds was determined as follows; 6 μL of DMSO stock solution of the selected example was added to 594 μL phosphate buffer (100 mM, pH 7.4). The resulting mixture was equilibrated over night (20-24 h, Alligator Shaker, room temperature). The mixture was then filtered (Millex LH 0.45 μm) and the concentration/solubility was determined by LC-UV quantification.

[3] = 10 μM ATP, read-out: TAK1 Mean IC50 (nM) @ 10 μM ATP
[4] = phosphate buffer, pH 7.4, aqueous buffer, kinetic from dmso stock, Solubility (μM)
[5] = 1 mM ATP, read-out: TAK1 Mean IC50 (nM) @ 1 mM ATP

Chain of human recombinant TAK1-TAB1 Kinase (TAK1 (1-303) and TAB1 (437-end)) (O43318 other isoform, or with tags, fused parts or gaps): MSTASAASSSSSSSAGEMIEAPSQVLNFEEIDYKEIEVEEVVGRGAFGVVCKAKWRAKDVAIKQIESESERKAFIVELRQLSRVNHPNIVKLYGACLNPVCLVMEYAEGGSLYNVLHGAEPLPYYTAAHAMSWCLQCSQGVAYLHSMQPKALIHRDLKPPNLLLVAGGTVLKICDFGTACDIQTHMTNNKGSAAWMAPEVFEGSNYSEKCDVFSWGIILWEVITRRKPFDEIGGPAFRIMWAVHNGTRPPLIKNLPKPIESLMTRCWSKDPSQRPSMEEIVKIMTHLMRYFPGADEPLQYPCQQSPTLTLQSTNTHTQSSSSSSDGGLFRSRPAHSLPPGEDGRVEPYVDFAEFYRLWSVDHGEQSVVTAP

SMILES	IC50 [1, 3] [nM]	solubility [2, 4] [µM]	IC50 [1, 5] [nM]	solubility [2] [µM]
C[C@H]1CN(C)CCN1C(=O)c1cccc2c1N1CCCCCNC(=O)c3cccc(c3)C(=O)/N=C/1N2 [Example 24, (S,E)-1^7-(2,4-dimethylpiperazine-1-carbonyl)-1^2,1^3-dihydro-1^1H-2,6-diaza-1(2,1)-benzo[d]imidazola-4(1,3)-benzenacycloundecaphane-3,5-dione]	4	26.2 (≈ 12.8 µg/mL)		
C[C@H]1CCCCNC(=O)c2cccc(c2)C(=O)/N=C2\Nc3cccc(-c4cn(C)nn4)c3N21 [Example 87, (S,E)-11-methyl-1^7-(1-methyl-1H-1,2,3-triazol-4-yl)-1^2,1^3-dihydro-1^1H-2,6-diaza-1(2,1)-benzo[d]imidazola-4(1,3)-benzenacycloundecaphane-3,5-dione]	5	4.7 (≈ 2.08 µg/mL)	9	
O=C1/N=C2\Nc3cccc(C(=O)N4CCN(C5COC5)CC4)c3N2CCCCCNC(=O)c2cccc1c2 [Example 19, (E)-1^7-(4-(oxetan-3-yl)piperazine-1-carbonyl)-1^2,1^3-dihydro-1^1H-2,6-diaza-1(2,1)-benzo[d]imidazola-4(1,3)-benzenacycloundecaphane-3,5-dione]	7	8.5 (≈ 4.39 µg/mL)		
C[C@H]1CCCCn2c(nc3cccc(C(=O)N(C)C)c32)NC(=O)c2cccc(c2)C(=O)N1 [Example 44, (S,E)-N,N,7-trimethyl-3,5-dioxo-1^2,1^3-dihydro-1^1H-2,6-diaza-1(2,1)-benzo[d]imidazola-4(1,3)-benzenacycloundecaphane-1^7-carboxamide]	223	26 (≈ 11.3 µg/mL)		
CC(C)N(C)C(=O)c1cccc2c1N1/C(=N/C(=O)c3cccc(c3)C(=O)NCCCCC1C)N2 (stereo not shown) [Example 47, (E)-N-isopropyl-N,11-dimethyl-3,5-dioxo-1^2,1^3-dihydro-1^1H-2,6-diaza-1(2,1)-benzo[d]imidazola-4(1,3)-benzenacycloundecaphane-1^7-carboxamide]	1	42 (≈ 19.4 µg/mL)		
[2H]C([2H])([2H])N(C(=O)c1cccc2c1N1/C(=N/C(=O)c3cccc(c3)C(=O)NCCCC[C@H]1C)N2)C([2H])([2H])[2H] [Example 64, (R,E)-11-methyl-N,N-bis(methyl-d3)-3,5-dioxo-1^2,1^3-dihydro-1^1H-2,6-diaza-1(2,1)-benzo[d]imidazola-4(1,3)-benzenacycloundecaphane-1^7-carboxamide]	3	44 (≈ 19.3 µg/mL)		
C[C@H]1CCCCNC(=O)c2cccc(c2)C(=O)/N=C2\Nc3cccc(N4CCN(C)C4=O)c3N21 [Example 74, (S,E)-11-methyl-1^7-(3-methyl-2-oxoimidazolidin-1-yl)-1^2,1^3-dihydro-1H-2,6-diaza-1(2,1)-benzo[d]imidazola-4(1,3)-benzenacycloundecaphane-3,5-dione]	7	90 (≈ 41.4 µg/mL)	11	
COC1(C)CN(C(=O)c2cccc3c2N2/C(=N/C(=O)c4cccc(c4)C(=O)NCCCCC2C)N3)C1 (stereo not shown) [Example 49, (E)-1^7-(3-methoxy-3-methylazetidine-1-carbonyl)-11-methyl-1^2,1^3-dihydro-1^1H-2,6-diaza-1(2,1)-benzo[d]imidazola-4(1,3)-benzenacycloundecaphane-3,5-dione]	3	89 (≈ 43.6 µg/mL)		
O=C1NCCCCCn2c(nc3cc(C(=O)N4CCN(C5COC5)CC4)ccc32)NC(=O)c2cccc1c2 [Example 12, 1^5-(4-(oxetan-3-yl)piperazine-1-carbonyl)-1^1H-2,6-diaza-1(2,1)-benzo[d]imidazola-4(1,3)-benzenacycloundecaphane-3,5-dione]	1	31.1 (≈ 16.1 µg/mL)		
CC1CCCCNC(=O)c2cccc(c2)C(=O)/N=C2\Nc3cccc(C(=O)N4CCOC[C@H]4C)c3N21 (single isomer, unassigned) [Example 76]	18	89 (≈ 43.6 µg/mL)		
CN(C)[C@H]1CCN(C(=O)c2cccc3c2N2CCCCCNC(=O)c4cccc(c4)C(=O)/N=C/2N3)C1 [Example 21, (S,E)-1^7-(3-(dimethylamino)pyrrolidine-1-carbonyl)-1^2,1^3-dihydro-1^1H-2,6-diaza-1(2,1)-benzo[d]imidazola-4(1,3)-benzenacycloundecaphane-3,5-dione]	7	85.1 (≈ 41.6 µg/mL)		
CN(C)[C@@H]1CCN(C(=O)c2cccc3c2N2CCCCCNC(=O)c4cccc(c4)C(=O)/N=C/2N3)C1 [Example 23, (R,E)-1^7-(3-(dimethylamino)pyrrolidine-1-carbonyl)-1^2,1^3-dihydro-1^1H-2,6-diaza-1(2,1)-benzo[d]imidazola-4(1,3)-benzenacycloundecaphane-3,5-dione]	8	83.3 (≈ 40.7 µg/mL)		
C[C@H]1CCCCNC(=O)c2cccc(c2)C(=O)Nc2nc3cccc(-c4ncn(C)n4)c3n21 [Example 84, (S)-11-methyl-1^7-(1-methyl-1H-1,2,4-triazol-3-yl)-1^1H-2,6-diaza-1(2,1)-benzo[d]imidazola-4(1,3)-benzenacycloundecaphane-3,5-dione]	5	15 (≈ 6.65 µg/mL)		
CN1CCN(C(=O)c2cccc3nc4n(c23)CCCCCNC(=O)c2cccc(c2)C(=O)N4)CC1 [Example 10, 1^7-(4-methylpiperazine-1-carbonyl)-1^1H-2,6-diaza-1(2,1)-benzo[d]imidazola-4(1,3)-benzenacycloundecaphane-3,5-dione]	11	28 (≈ 13.3 µg/mL)		
C[C@@H]1CCCCNC(=O)c2cccc(c2)C(=O)Nc2nc3ccc(Cl)c(C(=O)N(C)C)c3n21 [Example 56, (R,E)-1^6-chloro-N,N,11-trimethyl-3,5-dioxo-1^2,1^3-dihydro-1^1H-2,6-diaza-1(2,1)-benzo[d]imidazola-4(1,3)-benzenacycloundecaphane-1^7-carboxamide]	16			7.1 (≈ 3.32 µg/mL)
CC(=O)Nc1cccc2c1N1/C(=N/C(=O)c3cccc(c3)C(=O)NCCCCC1C)N2 (stereo not shown) [Example 45, (E)-N-(11-methyl-3,5-dioxo-1^2,1^3-dihydro-1^1H-2,6-diaza-1(2,1)-benzo[d]imidazola-4(1,3)-benzenacycloundecaphane-1^7-yl)acetamide]	4	74 (≈ 31 µg/mL)		
C[C@H]1CCCCNC(=O)c2cccc(c2)C(=O)Nc2nc3cccc(-c4ncnn4C)c3n21 [Example 86, (S,E)-11-methyl-1^7-(1-methyl-1H-1,2,4-triazol-5-yl)-1^1H-2,6-diaza-1(2,1)-benzo[d]imidazola-4(1,3)-benzenacycloundecaphane-3,5-dione]	4	33 (≈ 14.6 µg/mL)	9	
CC1CCCCNC(=O)c2cccc(c2)C(=O)/N=C2\Nc3cccc(C(=O)N4CCOC[C@@H]4C)c3N21 (single isomer, unassigned) [Example 78]	8	86 (≈ 42.1 µg/mL)		
CC1CCCCNC(=O)c2cccc(c2)C(=O)/N=C2\Nc3cccc(C(=O)N(C)CCF)c3N21 (single isomer, unassigned) [Example 70, (E)-N-(2-fluoroethyl)-N,11-dimethyl-3,5-dioxo-1^2,1^3-dihydro-1^1H-2,6-diaza-1(2,1)-benzo[d]imidazola-4(1,3)-benzenacycloundecaphane-1^7-carboxamide]	5	90 (≈ 41.9 µg/mL)	6	
CN1C[C@@H]2C[C@H]1CN2C(=O)c1cccc2c1N1CCCCCNC(=O)c3cccc(c3)C(=O)/N=C/1N2 [Example 22, (E)-1^7-((1S,4S)-5-methyl-2,5-diazabicyclo[2.2.1]heptane-2-carbonyl)-1^2,1^3-dihydro-1^1H-2,6-diaza-1(2,1)-benzo[d]imidazola-4(1,3)-benzenacycloundecaphane-3,5-dione]	9	88.5 (≈ 43.1 µg/mL)		
CN1C[C@H]2C[C@@H]1CN2C(=O)c1cccc2c1N1CCCCCNC(=O)c3cccc(c3)C(=O)/N=C/1N2 [Example 25, (E)-1^7-((1R,4R)-5-methyl-2,5-diazabicyclo[2.2.1]heptane-2-carbonyl)-1^2,1^3-dihydro-1^1H-2,6-diaza-1(2,1)-benzo[d]imidazola-4(1,3)-benzenacycloundecaphane-3,5-dione]	2	82 (≈ 39.9 µg/mL)		
O=C1NCCCCCn2c(nc3cccc(C(=O)N4CCNCC4)c32)NC(=O)c2cccc1c2 [Example 17, 1^7-(piperazine-1-carbonyl)-1^1H-2,6-diaza-1(2,1)-benzo[d]imidazola-4(1,3)-benzenacycloundecaphane-3,5-dione]	4	93.6 (≈ 43.1 µg/mL)		
CC1CCCCNC(=O)c2cccc(c2)C(=O)Nc2nc3cccc(C(=O)N(C)C)c3n21 (single isomer, unassigned) [Example 32, (E)-N,N,11-trimethyl-3,5-dioxo-1^2,1^3-dihydro-1^1H-2,6-diaza-1(2,1)-benzo[d]imidazola-4(1,3)-benzenacycloundecaphane-1^7-carboxamide]	3	95 (≈ 41.2 µg/mL)	14	
CN1CCN(Cc2ccc3c(c2)N2CCCCCNC(=O)c4cccc(c4)C(=O)/N=C/2N3)CC1 [Example 101, (E)-1^6-((4-methylpiperazin-1-yl)methyl)-1^2,1^3-dihydro-1^1H-2,6-diaza-1(2,1)-benzo[d]imidazola-4(1,3)-benzenacycloundecaphane-3,5-dione]	8	20.8 (≈ 9.58 µg/mL)		
C[C@@H]1CN(C)CCN1C(=O)c1cccc2c1N1CCCCCNC(=O)c3cccc(c3)C(=O)/N=C/1N2 [Example 20, (R,E)-1^7-(2,4-dimethylpiperazine-1-carbonyl)-1^2,1^3-dihydro-1^1H-2,6-diaza-1(2,1)-benzo[d]imidazola-4(1,3)-benzenacycloundecaphane-3,5-dione]	19	35 (≈ 17.1 µg/mL)		
